Measurements published in BindingDB's records for doi:10.7270/Q2319T8T (The Scripps Research Institute Molecular Screening Center, 2007).

Biological target: Steroidogenic factor 1 (Homo sapiens, UniProt Q13285)
Assay: SF-1 inhibitor potency, dose response, cell-based, CHO-K1, Gal4-SF-1 LBD, luciferase luminescence (AID 600)
[1] = inactive by the depositor's call

Chain of Steroidogenic factor 1 (Q13285 whole entry, the tested form may be a part): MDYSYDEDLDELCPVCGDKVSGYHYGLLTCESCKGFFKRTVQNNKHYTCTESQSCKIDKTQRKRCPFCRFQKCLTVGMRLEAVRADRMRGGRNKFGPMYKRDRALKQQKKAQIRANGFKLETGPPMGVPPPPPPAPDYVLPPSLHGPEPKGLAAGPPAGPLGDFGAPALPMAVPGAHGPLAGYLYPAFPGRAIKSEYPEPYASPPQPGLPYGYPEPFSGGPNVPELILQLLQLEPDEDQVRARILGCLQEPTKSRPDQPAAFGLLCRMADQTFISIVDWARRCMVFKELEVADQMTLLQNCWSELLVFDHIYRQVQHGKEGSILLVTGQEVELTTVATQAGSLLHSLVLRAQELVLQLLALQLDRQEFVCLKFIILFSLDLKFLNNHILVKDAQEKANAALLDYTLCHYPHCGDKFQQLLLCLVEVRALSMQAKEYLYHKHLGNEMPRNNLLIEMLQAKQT

Row | SMILES | IC50 [µM] | IC50 [1] [µM]
1 | Cc1sc(NC(=O)c2ccco2)c(C(c2cccnc2)N2CCN(c3ccc(F)cc3)CC2)c1C (stereo unspecified) [MLS000114428] | > 11 | –
2 | O=C(Nc1nnc(C2CC2)o1)c1ccc(S(=O)(=O)N2CCCc3ccccc32)cc1 [MLS000116109] | – | 13.7
3 | O=C(Nc1nc2ccccc2[nH]1)c1ccccc1F [N-1,3-dihydro-2H-benzimidazol-2-ylidene-2-fluorobenzamide] | 1.55 | –
4 | N#Cc1c(NC(=O)CSc2nc[nH]n2)sc2c1CCCCC2 [N-(3-cyano-5,6,7,8-tetrahydro-4H-cyclohepta[b]thien-2-yl)-2-(1H-1,2,4-triazol-3-ylthio)acetamide] | 0.098 | –
5 | Cc1ccc(-c2csc(N3CCC(NS(=O)(=O)c4ccc5c(c4)OCCO5)CC3)n2)cc1 [N-[1-[4-(4-methylphenyl)-1,3-thiazol-2-yl]piperidin-4-yl]-2,3-dihydro-1,4-benzodioxine-6-sulfonamide] | – | 11.3
6 | c1ccc(N=C2N=C(Nc3ccccn3)c3ccccc32)nc1 [N-pyridin-2-yl-3-pyridin-2-yliminoisoindol-1-amine] | 2.24 | –
7 | c1ccc2nc(-c3nc4ccccc4[nH]3)ccc2c1 [SMR000008748] | 2.38 | –
8 | O=S1(=O)C=C(Sc2nc3cc(Cl)ccc3o2)c2ccccc21 [SMR000019512] | 5.11 | –
9 | CCCCS(=O)(=O)/C=C\C=C/S(=O)(=O)CCCC [SMR000020833] | 1.3 | –
10 | CC(=O)c1c(C)[nH]c(C(=O)Nc2ccc(C)cn2)c1C [SMR000026816] | – | 14.2
11 | CN1C2C=C3C(C#N)=C(N)C(C#N)(C#N)[C@@H](c4ccc(Cl)cc4)[C@@H]3C1CC2 (stereo partly specified) [SMR000038778] | 3.35 | –
12 | c1ccc2c(c1)CCN(c1ncnc3c1[nH]c1ccccc13)C2 [SMR000039631] | 9.03 | –
13 | C/C(Cl)=C\Cn1c(NCCc2ccccc2)nc2c1c(=O)n(C)c(=O)n2C [SMR000044779] | > 11 | –
14 | Cc1ccc2c(c1)[nH]c1c(N3CCN(Cc4ccccc4)CC3)ncnc12 [SMR000044826] | > 3.67 | –
15 | c1ccc(-c2nc(N3CCCCCC3)c3ccccc3n2)nc1 [SMR000046752] | 3.46 | –
16 | COCCn1c(C)cc(C(=O)COC(=O)c2[nH]nc3ccccc23)c1C [SMR000068187] | 9.87 | –
17 | COc1cc(NS(=O)(=O)c2ccc(C)cc2)c2ncccc2c1 [SMR000071147] | > 3.67 | –
18 | C=CCOC(=O)c1[nH]c2c(c1C)C(=O)CC(c1cc(OC)c(OC)c(OC)c1)C2 (stereo unspecified) [SMR000093465] | – | 18.1
19 | CC(C)(C)c1ccc(-c2cc(N)[nH]n2)cc1 [SMR000095263] | 5.25 | –
20 | CSC1=NC2=C(C(=O)CC(C)(C)C2)C(c2ccc(Cl)cc2)C1C#N (stereo unspecified) [SMR000102109] | 21.3 | –
21 | COc1nc(Nc2nc(O)c3ccccc3n2)nc2ccc(C)cc12 [SMR000108404] | 2.1 | –
22 | CCOC(=O)C(C)Oc1cccc2c(=O)n(CC(=O)NCc3ccc4c(c3)OCO4)ccc12 (stereo unspecified) [ethyl 2-[(2-{[(2H-1,3-benzodioxol-5-ylmethyl)carbamoyl]methyl}-1-oxo-1,2-dihydroisoquinolin-5-yl)oxy]propanoate] | 0.315 | –
23 | CCOC(=O)C1C(Cn2cnc3ccccc32)=NC(=O)NC1c1cc(C)ccc1C (stereo unspecified) [ethyl 6-(benzimidazol-1-ylmethyl)-4-(2,5-dimethylphenyl)-2-oxidanylidene-3,4-dihydro-1H-pyrimidine-5-carboxylate] | 23.5 | –
24 | COC(=O)/C(=C1/Oc2cc(C)oc(=O)c2S1)C(F)(F)F [methyl (2E)-3,3,3-tris(fluoranyl)-2-(6-methyl-4-oxidanylidene-[1,3]oxathiolo[4,5-c]pyran-2-ylidene)propanoate] | 4.69 | –
25 | CCCCCOC(=O)c1[nH]c2c(c1C)C(=O)CC(c1ccco1)C2 (stereo unspecified) [pentyl 6-(furan-2-yl)-3-methyl-4-oxidanylidene-1,5,6,7-tetrahydroindole-2-carboxylate] | > 1.22 | –
26 | COc1cc([C@@H]2c3cc4c(cc3[C@H](O)[C@H]3COC(=O)[C@H]23)OCO4)cc(OC)c1OC [podophyllotoxin] | 0.0454 | –
